Experimental findings from EP0411593A2, “Use of bis (aminothiocarbonyl) disulfide for treating ulcer” (KURARAY CO., LTD., priority 1989, dated 1991) are described below.

Data set [1] deals with HCl-ethanol induced ulcer. In words: Antiulcer activity (HCl-ethanol ulcer), oral administration. To be noted: rats, inhibition of ulcer coefficient vs control; for Inhibitation Rate (%): dose 5 mg/kg orally one hour before HCl-ethanol. The data set is classed as in vivo. How it is done: Antiulcer activity (HCl-ethanol ulcer) 1.5 ml of 60% ethanol aqueous solution containing 150 mM of hydrochloric acid was orally administered to rats. One hour thereafter the rats were sacrificed and the length (mm) of HCl-ethanol induced ulcer generated at the mucosa of the stomach was measured. The sum of the ulcer length per animal is defined as ulcer coefficient. Specimens each was orally administered one hour before the HCl-ethanol administration. Inhibition rate was calculated by dividing the difference in ulcer coefficient between the control group and the specimen-administered group by the ulcer coefficient of the control group.

The nature of data set [2]: Acute toxicity through oral administration. To be noted: mouse, in vivo, male ICR-strain mice (5 weeks old), read-out: LD₅₀. Here is the method:
Acute toxicity tests through oral administration were carried out using male ICR-strain mice (5 weeks old).
The LD₅₀ values of the compound (1) of the present invention was 2000 mg/kg or more and thus higher saftety as compared with the effective amount was ascertained.

Some results are limits rather than exact numbers.

On to `S=C(SSC(=S)N1CCOCC1)N1CCOCC1` [Compound Number (1)], for which, in data set [1], the “Inhibitation Rate (%)” value turned out to be 93.7%. In data set [2], the LD50 is at least 2000 mg/kg.

For `CC1CN(C(=S)SSC(=S)N2CC(C)OC(C)C2)CC(C)O1` (centres unmarked) [Compound Number (2)], the “Inhibitation Rate (%)” value in data set [1] was found to be 81.7%. In the case of `OCCN1CCN(C(=S)SSC(=S)N2CCN(CCO)CC2)CC1` [Compound Number (3)], the “Inhibitation Rate (%)” value in data set [1] was found to be 24.3%. As to `S=C(SSC(=S)N1CCCCC1)N1CCCCC1` [Compound Number (4)], the “Inhibitation Rate (%)” value in data set [1] is on record as 64.1%. Same read-out and setting: next, `OCCC1CCN(C(=S)SSC(=S)N2CCC(CCO)CC2)CC1` [Compound Number (5), bis[[4-(2-hydroxyethyl)piperidiono]thiocarbonyl]disulfide]: 37.4%. For `CC(=O)c1ccc2c(c1)C(=O)C1(CC1)O2` [Spizofurone, reference compound], the “Inhibiton Rate (%)” value in data set [1] (dose 100 mg/kg orally one hour before HCl-ethanol) came out at 86.6%. With Teprenone [reference compound], the “Inhibiton Rate (%)” value in data set [1] (dose 25 mg/kg orally one hour before HCl-ethanol) worked out at 48.9%.
